Reference: patent US20240374535A1, “COMPOSITIONS AND METHODS FOR TREATING BIOFILM DISORDERS AND INFECTIONS” (AHV International B.V., priority 2021, published 2024)

Tests used:
[1] = system: Staphylococcus epidermis ATCC 35984; experiment: MIC assay (planktonic growth inhibition, OD600); format: cell-based, S. epidermidis; settings: 24 h at 37° C.
Procedure, shortened: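 Broth microdilution in MHB-II, two-fold series from 8 mM stock solution (Tween 80/DMSO co-diluted, 2.5% in top well). Inoculum from overnight TSA colonies adjusted to OD600 0.0008 (~10^6 CFU/mL); 24 h at 37° C., growth read as OD600; three independent experiments.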

[2] = system: Pseudomonas aeruginosa ATCC 27853 biofilm; experiment: MBIC assay (biofilm inhibition, crystal violet); format: cell-based, P. aeruginosa; settings: 48 h incubation, absorbance 540 nm
Method: (§1) The exact weighed amount was noted and the volume of solvent to reach a 80 mM dilution calculated. Half of the volume was added first, by adding Tween 80. In a second step, the other half of the volume DMSO was added and the closed tube inverted 5-10 times and then vortexed very thoroughly for at least 30 seconds. If after this procedure unsolved material was still visible, the tube was placed in a shaker at 37° C. at 150 rpm for at least 30 minutes. […] For the MBEC assay (method 1.3) the solution needs to be diluted to a final concentration of 2 mM in 0.9% saline solution and then further diluted to 1 mM, 0.5 mM, 0.25 mM and 0.125 mM in saline. Those dilutions were added as treatment to the 96 well plates with the grown biofilm (see method 3).
(§2) Frozen aliquots of Staphylococcus epidermis ATCC 35984 and Pseudomonas aeruginosa ATCC 27853 were used to inoculate a tryptic soy agar (TSA) plate and were incubated overnight at 37° C. After incubation 3-5 well-isolated colonies with the same morphology were selected from the TSA plate and resuspended in 2 mL 0.9% saline solution with 3-6 glass beads and vortexed. The optical density of the bacterial suspension was measured at 600 nm (OD600) with a spectrophotometer (Evolution™ 201/220 UV-Visible Spectrophotometer, Thermo Fisher Scientific) and diluted to an OD600 of 0.2. The MBIC assay was performed in a 96-microtiter plate. 50 μL of TSB was added into columns 2-11, and 100 μL to column 12 for sterility control. 100 μL of the 8 mM test compound solution (method 1) was added to column 1. A two-fold dilution series of the solution in TSB was achieved by resuspending 50 μL of the 8 mM solution from column 1 in column 2. This step was repeated until column 10. The respective concentration of Tween 80 and DMSO in column 1 is at 2.5%, which is two-fold diluted throughout the plate. 50 μL of the bacterial suspension was added to column 1-11. The microtiter plates were sealed with adhesive polyethylene film for sealing microplates (Diversified Biotech) and incubated for 48 h at 37° C. After incubation the supernatant is carefully removed and the well with the biofilm washed for one time with 100 μL 0.9% saline solution. 100 μL 0.1 M HCl was added and incubated for 1 h at room temperature to fix the biofilm. After incubation the HCl was removed and 100 μL crystal violet (0.1% v/v in water) was added and incubated for 30 min at room temperature. The unbound crystal violet was removed and the wells washed one time with 100 μL demineralized water. 100 μL 30% acetic acid was added and incubated for 1 h at 37° C. and 150 rpm. The solution was resuspended and transferred to a flat-bottom 96-well plate and the absorbance measured at 540 nm with the spectrophotometer. This assay was repeated two times in two independent experiments.

[3] = system: Pseudomonas aeruginosa ATCC 27853 biofilm; experiment: MBEC assay (biofilm eradication, CFU log reduction); format: cell-based, P. aeruginosa; settings: 48 h grown biofilm, 20 h treatment, CFU log reduction vs untreated
Procedure, shortened: (§3)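 Biofilms were grown 48 h static at 37 °C in TSB from inocula at OD600 0.2, then treated 20 h at 37 °C with 1, 0.5, 0.25 or 0.125 mM compound in saline (Tween 80 and DMSO each 0.63–0.08%), four replicates per condition. Resuspended biofilm was serially diluted and plated on TSA for 24 h; log CFU reduction versus untreated, with ≥1 counted as significant, in two independent experiments.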

[4] = system: Staphylococcus epidermis ATCC 35984 biofilm; experiment: MBIC assay (biofilm inhibition, crystal violet); format: cell-based, S. epidermidis; settings: 48 h incubation, absorbance 540 nm
Method: as §1, §2

[5] = system: Staphylococcus epidermis ATCC 35984 biofilm; experiment: MBEC assay (biofilm eradication, CFU log reduction); format: cell-based, S. epidermidis; settings: 48 h grown biofilm, 20 h treatment, CFU log reduction vs untreated
Procedure, shortened: as §3

| SMILES | S. epidermidis MIC50 ([1]; minimal concentration reducing final OD600 by 50%) | S. epidermidis MIC90 ([1]; minimal concentration reducing final OD600 by 90%) | P. aeruginosa MBIC90 [2] | P. aeruginosa MBEC mM with log reduction ≥1 [3] | S. epidermidis MBIC90 [4] | S. epidermidis MBEC mM with log reduction ≥1 [5] | IC50 ([1]; minimal concentration reducing final OD600 by 50%, read-out: S. epidermidis MIC50) | IC90 ([1]; minimal concentration reducing final OD600 by 90%, read-out: S. epidermidis MIC90) | minimal effective concentration ([3]; Pseudomonas aeruginosa, ATCC27853, read-out: P. aeruginosa MBEC mM with log reduction ≥1) | minimal effective concentration ([5]; read-out: S. epidermidis MBEC mM with log reduction ≥1) |
| --- | --- | --- | --- | --- | --- | --- | --- | --- | --- | --- |
| CSS(C)(=O)=O [Di-methyl thiosulfonate, methyl methane thiosulfonate] | 250 µM | 250 µM | 4 mM | 2 mM | >4 mM | 2 mM | – | – | – | – |
| CCCS[S+]([O-])CCC (stereo not drawn) [Di-n-propyl thiosulfinate, S-propyl propane-1-sulfinothioate] | – | – | 2 mM | – | >4 mM | – | 250 µM | 500 µM | 4 mM | 2 mM |
